What was measured:
[1] = system: cultured neurons; experiment: Lysosphingolipid content of cultured neurons by NBDZF fluorescence tagging; format: cell-based, chick; settings: following exposure to 50 µM lysosphingolipid for 1 hour
Excerpt: Agonist-binding to metabotropic receptors influences the levels of lysosphingolipid in neuronal membranes. However, there is no convenient methodology available for the measurement of lysosphingolipid content in cultured neurons. As a result, a sensitive method of fluorometric tracing has been devised and is described herein. The measurement of lysosphingolipid content in cultured neurons is based on the stable fluorescence-tagging procedure using 4-fluoro, 7-nitrobenzofuran (NBDZF) described by Nozowa et al J. Neutochem. 59:607-609, 1992). The procedure was applied to: resting neurons; neurons exposed to 100 µM metabotropic receptor agonist for 1 hour; resting neurons exogenously enriched in lysosphingolipids; and neurons exogenously enriched in lysosphingolipids and exposed to metabotropic receptor agonist for 1 hour. The neurons were scraped in batches of 10^7 (1 Petri dish, approximately 8 cm in diameter, is equivalent to 2 mg membrane protein) and subjected to anaylsis.
(§1) Total lipids were removed from the neuron samples by repeated extraction with chloroform:methanol (2:1, vol:vol). The lysosphingolipids were separated from total neuronal lipid in 90 ± 5 % recovery yield (n = 10) by the stepped chromatographic procedure of Van Veldhoven et al. (Anal. Biochem. 183:177-189, 1989). The recovered lysosphingolipids were stably tagged with NBDZF by the rapid procedure of Nozowa et al. (supra). The fluorescence tagged neuronal lysosphingolipids were separated in parallel with reference standards NBDZF-Sph, NBDZF-Psy, and NBDZF-Lsm on high performance silica gel thin layer chromatography plates with acetonitrile:H2O (10:0.5, vol:vol). The highly fluorescent, well separated bands were scraped from the plate. The fluorescence tagged lysosphingolipids are eluted from the scraped silica gel with methanol:1 N HCl (1:0.02, vol:vol). The fluorescence tagged lysosphingolipid eluates were quantitated against reference standards by fluorescence measurement in a Perkin-Elmer LS-5 Fluorescence Spectrometer.
Sphingolipid content of neurons exposed to sphingosine, lysocerebroside, and lysosphingomyelin was examined as follows. A Petri dish containing approximately 10^7 neurons was incubated with 5 µCi [^3H]myo-Ins in 3 ml DMEM overnight to prelabel the phosphoinositide InsP3 may contain. The neurons were washed with PBS and 3 ml of PBS containing 4.5 g/l glucose was added. Preparations of sphingosine, lysocerebroside, lysosphingomyelin (Sigma Chemical Co., St. Louis, MO) and combinations of each were prepared as the hydrochloride salt dissolved in PBS. The lysosphingolipids were added to the Petri dishes to produce a concentration ranging from 0 - 150 µM. The dishes were held at room temperature for 0.5, 1, or 2 hours, then washed with PBS and incubated with 5 Units of trypsin in glucose/PBS for […] at 37°C. Trypsinization removes non-specifically bound lysosphingolipids that may adhere to extracellular plasma membrane protein domains. Non-specific adherence between cationic micelles of lysosphingolipids and the neuronal glycocalyx is avoided by performing the experiments with lysosphingolipid concentrations below the critical micelle concentration. Neurons were analyzed for lysosphingolipid content as described above.

[2] = system: cortical neurons; experiment: Calcium ion signalling (fura 2) in intact cortical neurons; format: cell-based, chick; settings: neurons loaded to 150 ± 20 pmoles per mg protein; 10 µM glutamate agonist, 30 minutes
Protocol: Metabotropic receptor function was examined in intact neurons by assaying lysosphingolipid modulation of calcium ion signalling. Approximately 1 X 10^6 cortical neurons were cultured on rectangular L-polylysine-coated coverslips and loaded with lysocerebroside or lysosphingomyelin to a level of 150 ± 20 pmoles per mg protein. The neurons were returned to complete Ham's high glucose medium/DMEM (1:1, vol:vol) and infiltrated with 5 µM fura 2/AM (Molecular Probes, Eugene, OR). Fura 2 is a calcium chelator whose fluorescence absorbance shifts to shorter wavelength upon calcium ion binding is measurable in intact cells. A change in intraneuronal calcium ion concentration was monitored as a change in the fluorescence spectrum.
The neurons were exposed to 10 µM glutamate agonist (for example, ibotenate) for 30 minutes at 37°C. The coverslips were then transferred to quartz cuvettes in medium containing 250 µM sulfinpyrazone to prevent fura 2/AM diffusion. Fluorescence ratios were recorded in a Perkin-Elmer LS-5 Fluorescence Spectrometer thermostatted at 37°C at excitation wavelengths of 340 and 380 nm, and emission measurement at 500 nm. Calcium ion signalling in agonist-stimulated neurons was 3.0 ± 0.2 arbitrary units for ibotenate-exposed neurons.

[3] = system: phospholipase C isoforms beta, delta, and gamma; experiment: Free phospholipase C activity in solution (kinetics); format: biochemical; settings: for KM / diminution in Vmax / increase in calcium ion concentration required for optimal activity: 10 µM lysocerebroside or 5 µM lysosphingomyelin
Protocol: The effects of sphingosine, lysocerebroside, and lysosphingomyelin on the kinetics of pure, immunologically isolated phospholipase C isoforms beta, delta, and gamma (which are commercially available) was examined. For each isoform, 10 µM sphingosine was added to a reaction medium consisting of 1 µg phospholipase C isoform/ml, Tris-malate buffer (50 mM, pH 7.0) containing 100 µM phosphatidyl inositol bis-phosphate tri-ammonium salt, 0.01 µCi tritium labeled phosphatidyl inositol bis-phosphate, 100 mM NaCl, 10 mM CaCl2, and 5 mM 2-merceptoethanol.

[4] = Lysosphingolipid loading of isolated neuronal plasma membrane (fluorescence tagging); format: in vitro ADME, chick; settings: Plasma Membrane Suspension, 10 μmolar exposure
Excerpt: as §1
Physiologically active phospholipase C is present on the endofacial portion of the plasma membrane. A procedure for examining its activity in an intact membrane is provided. The neuronal membrane preparation described below is useful for determining lysosphingolipid effects on the phosphatidylinositol kinase and phospholipase C activities in intact membranes. One hundred Petri dishes of cultured cortical neurons were incubated overnight with 50 µCi [^3H]myo-inositol per mL of culture medium. Ten Petri dish-samples of cultured neurons (1 X 10^8 neurons; 23 ± 2 mg protein, n = 15) were pooled to produce 2.4 ± 0.2 mg plasma membrane by the following procedure. The collected neurons were homogenized in 5 mL 0.32 M sucrose and centrifuged at 1000 X g for 15 minutes. The supernatant was layered on top of 2 ml 1.2 M sucrose and centrifuged at 300,000 X g for 20 minutes. The sedimented pellet was resuspended by sonication for 10 seconds in 50 mM Tris buffer (pH 7.4), containing 0.3 µM CaCl2, 1 mM MgCl2, and 0.01% ascorbic acid.
The suspended plasma membrane preparation was apportioned into 250 µl samples, each providing approximately 100 µg membrane protein. Sphingosine, psychosine, and lysosphingomyelin were added to each plasma membrane sample. […] Samples were analyzed for lysosphingolipid loading (i.e., membrane lysosphingolipid content following exposure to exogenous sphingolipid) by fluorescence tagging. Table 2 provides the results of exposure of plasma membrane samples to 10 µM lysosphingolipids. Values are reported in pmoles lysosphingolipid/mg plasma membrane protein. Values obtained for isolated plasma membrane and intact neurons are compared.

Row | SMILES | content of sphingosine in the neurons [1] | agonist-elicited calcium signalling in lysosphingolipid-loaded neurons [2] | KM [3] | diminution in Vmax [3] | increase in calcium ion concentration required for optimal activity [3] | membrane lysosphingolipid content, 0 hours of incubation [4] | membrane lysosphingolipid content, 0.5 hours of incubation [4] | membrane lysosphingolipid content, 1.0 hours of incubation [4] | membrane lysosphingolipid content, 2.0 hours of incubation [4] | membrane lysosphingolipid content, 3.0 hours of incubation [4] | KM for substrate phosphatidylinositol bis-phosphate ([3]; 10 µM sphingosine) | calcium ion concentration required for optimal activity ([3]; 10 µM sphingosine) | increase in Vmax ([3]; 10 µM sphingosine, each isoform)
1 | CCCCCCCCCCCCC/C=C/[C@@H](O)[C@@H](N)COP(=O)([O-])OCC[N+](C)(C)C [lysosphingomyelin, sphingosyl phosphorylcholine] | 105 ± 0.15 pmoles/mg protein | no calcium signalling measurably over controls | no change | 60% ± 10% | 5 fold | 5±1 pmoles lysosphingolipid/mg plasma membrane protein | 65±15 pmoles lysosphingolipid/mg plasma membrane protein | 110±15 pmoles lysosphingolipid/mg plasma membrane protein | 120±10 pmoles lysosphingolipid/mg plasma membrane protein | 145±25 pmoles lysosphingolipid/mg plasma membrane protein |  |  | 
2 | CCCCCCCCCCCCC/C=C/[C@@H](O)[C@@H](N)CO[C@@H]1O[C@H](CO)[C@H](O)[C@H](O)[C@H]1O [psychosine] | 220 ± 45 pmoles/mg protein | no calcium signalling measurably over controls | no change | 60% ± 10% | 5 fold | 45±5 pmoles lysosphingolipid/mg plasma membrane protein | 75±20 pmoles lysosphingolipid/mg plasma membrane protein | 120±15 pmoles lysosphingolipid/mg plasma membrane protein | 180±15 pmoles lysosphingolipid/mg plasma membrane protein | 175±20 pmoles lysosphingolipid/mg plasma membrane protein |  |  | 
3 | CCCCCCCCCCCCC/C=C/[C@@H](O)[C@@H](N)CO [sphingosine] | 430 ± 70 pmoles/mg protein |  |  |  |  | 105±5 pmoles lysosphingolipid/mg plasma membrane protein | 113±15 pmoles lysosphingolipid/mg plasma membrane protein | 140±15 pmoles lysosphingolipid/mg plasma membrane protein | 165±20 pmoles lysosphingolipid/mg plasma membrane protein | 175±25 pmoles lysosphingolipid/mg plasma membrane protein | no effect | a decrease | approximately 2 fold

Source: EP1488698A1, “Compositions for descreasing intracellular inositol trisphosphate concentration and uses thereof” (priority 1995, dated 1997)
